Results published in ChEMBL document CHEMBL4346757, “Synthesis and biological evaluation of 7-methoxy-1-(3,4,5-trimethoxyphenyl)-4,5-dihydro-2H-benzo[e]indazoles as new colchicine site inhibitors” (Bioorg Med Chem Lett, 2019).

Experiments:
Assay type in all cases: functional
[1] = system: MOLT-4; assay: Growth inhibition of human MOLT4 cells assessed as cell growth at 0.01 uM after 48 hrs by SRB assay relative to control; conditions: MOLT-4, 48 h, read-out: Activity
[2] = system: CAKI-1; assay: Growth inhibition of human Caki1 cells assessed as cell growth at 0.01 uM after 48 hrs by SRB assay relative to control; conditions: CAKI-1, 48 h, read-out: Activity
[3] = system: T47D; assay: Growth inhibition of human T47D cells assessed as cell growth at 0.01 uM after 48 hrs by SRB assay relative to control; conditions: read-out: Activity
[4] = system: CCRF-CEM; assay: Growth inhibition of human CCRF-CEM cells assessed as cell growth at 0.1 uM after 48 hrs by SRB assay relative to control; conditions: read-out: Activity
[5] = system: OVCAR-5; assay: Growth inhibition of human OVCAR5 cells assessed as cell growth at 0.1 uM after 48 hrs by SRB assay relative to control; conditions: OVCAR-5, 48 h, read-out: Activity
[6] = system: OVCAR-8; assay: Growth inhibition of human OVCAR8 cells assessed as cell growth at 0.1 uM after 48 hrs by SRB assay relative to control; conditions: OVCAR-8, 48 h, read-out: Activity
[7] = system: UO-31; assay: Growth inhibition of human UO31 cells assessed as cell growth at 0.1 uM after 48 hrs by SRB assay relative to control; conditions: UO-31, 48 h, read-out: Activity
[8] = system: HOP-62; assay: Growth inhibition of human HOP62 cells assessed as cell growth at 1 uM after 48 hrs by SRB assay relative to control; conditions: HOP-62, 48 h, read-out: Activity
[9] = system: LOX IMVI; assay: Growth inhibition of human LOXIMVI cells assessed as cell growth at 1 uM after 48 hrs by SRB assay relative to control; conditions: read-out: Activity
[10] = system: UACC-62; assay: Growth inhibition of human UACC62 cells assessed as cell growth at 1 uM after 48 hrs by SRB assay relative to control; conditions: UACC-62, 48 h, read-out: Activity
[11] = system: OVCAR-4; assay: Growth inhibition of human OVCAR4 cells assessed as cell growth at 1 uM after 48 hrs by SRB assay relative to control; conditions: OVCAR-4, 48 h, read-out: Activity
[12] = system: Hs-578T; assay: Growth inhibition of human Hs 578T cells assessed as cell growth at 1 uM after 48 hrs by SRB assay relative to control; conditions: read-out: Activity
[13] = system: CCRF-CEM; assay: Growth inhibition of human CCRF-CEM cells assessed as cell growth at 10 uM after 48 hrs by SRB assay relative to control; conditions: read-out: Activity
[14] = system: SR; assay: Growth inhibition of human SR cells assessed as cell growth at 10 uM after 48 hrs by SRB assay relative to control; conditions: read-out: Activity
[15] = system: HOP-62; assay: Growth inhibition of human HOP62 cells assessed as cell growth at 10 uM after 48 hrs by SRB assay relative to control; conditions: HOP-62, 48 h, read-out: Activity
[16] = system: COLO 205; assay: Growth inhibition of human COLO205 cells assessed as cell growth at 10 uM after 48 hrs by SRB assay relative to control; conditions: COLO 205, 48 h, read-out: Activity
[17] = system: HCT-116; assay: Growth inhibition of human HCT116 cells assessed as cell growth at 10 uM after 48 hrs by SRB assay relative to control; conditions: HCT-116, 48 h, read-out: Activity
[18] = system: HCT-15; assay: Growth inhibition of human HCT15 cells assessed as cell growth at 10 uM after 48 hrs by SRB assay relative to control; conditions: HCT-15, 48 h, read-out: Activity
[19] = system: DU-145; assay: Growth inhibition of human DU145 cells assessed as cell growth at 10 uM after 48 hrs by SRB assay relative to control; conditions: DU-145, 48 h, read-out: Activity
[20] = system: Malme-3M; assay: Growth inhibition of human MALME-3M cells assessed as cell growth at 100 uM after 48 hrs by SRB assay relative to control; conditions: read-out: Activity
[21] = system: UACC-62; assay: Growth inhibition of human UACC62 cells assessed as cell growth at 100 uM after 48 hrs by SRB assay relative to control; conditions: UACC-62, 48 h, read-out: Activity
[22] = system: IGROV-1; assay: Growth inhibition of human IGROV1 cells assessed as cell growth at 100 uM after 48 hrs by SRB assay relative to control; conditions: IGROV-1, 48 h, read-out: Activity
[23] = system: MDA-MB-468; assay: Growth inhibition of human MDA-MB-468 cells assessed as cell growth at 100 uM after 48 hrs by SRB assay relative to control; conditions: MDA-MB-468, 48 h, read-out: Activity
[24] = system: SF-268; assay: Cytotoxicity against human SF268 cells assessed as growth inhibition after 48 hrs by SRB assay; conditions: SF-268, 48 h
[25] = system: SNB-19; assay: Cytotoxicity against human SNB19 cells assessed as growth inhibition after 48 hrs by SRB assay; conditions: SNB-19, 48 h
[26] = system: OVCAR-4; assay: Cytotoxicity against human OVCAR4 cells assessed as growth inhibition after 48 hrs by SRB assay; conditions: OVCAR-4, 48 h
[27] = system: NCI/ADR-RES; assay: Cytotoxicity against human NCI-ADR-RES cells assessed as growth inhibition after 48 hrs by SRB assay
[28] = system: PC-3; assay: Cytotoxicity against human PC3 cells assessed as growth inhibition after 48 hrs by SRB assay; conditions: PC-3, 48 h
[29] = system: MDA-MB-231; assay: Cytotoxicity against human MDA-MB-231/ATCC cells assessed as growth inhibition after 48 hrs by SRB assay; conditions: MDA-MB-231, 48 h
[30] = read-out: LC50 (the source's name)
[31] = read-out: pLC50 (the source's name) (converted)

Q: How did the growth at 0.01 µM [1] turn out when `COc1ccc2c(c1)CCc1n[nH]c(-c3cc(OC)c(OC)c(OC)c3)c1-2` was run?
A: 41%

Q: And the growth at 0.01 µM [2]?
A: 30%

Q: What about the growth at 0.01 µM [3] of the same compound?
A: 59%

Q: What about the growth at 0.1 µM [4] of the same compound?
A: 42%

Q: What about the growth at 0.1 µM [5] of the same compound?
A: 54%

Q: And the growth at 0.1 µM [6]?
A: 13%

Q: What about the growth at 0.1 µM [7] of the same compound?
A: 30%

Q: And the growth at 1 µM [8]?
A: 6%

Q: What about the growth at 1 µM [9] of the same compound?
A: 18%

Q: And the growth at 1 µM [10]?
A: 36%

Q: What about the growth at 1 µM [11] of the same compound?
A: 40%

Q: And the growth at 1 µM [12]?
A: 18%

Q: What about the growth at 10 µM [13] of the same compound?
A: 41%

Q: What about the growth at 10 µM [14] of the same compound?
A: 9%

Q: What about the growth at 10 µM [15] of the same compound?
A: 3%

Q: What about the growth at 10 µM [16] of the same compound?
A: -61%

Q: And the growth at 10 µM [17]?
A: -15%

Q: What about the growth at 10 µM [18] of the same compound?
A: 3%

Q: What about the growth at 10 µM [19] of the same compound?
A: 8%

Q: What about the growth at 100 µM [20] of the same compound?
A: -36%

Q: And the growth at 100 µM [21]?
A: -76%

Q: And the growth at 100 µM [22]?
A: -33%

Q: What about the growth at 100 µM [23] of the same compound?
A: -39%

Q: And the GI50 ([24]; read-out: GI50)?
A: < 0.01 µM

Q: And the CC50 [24, 30]?
A: > 100 µM

Q: What about the TGI ([24]; read-out: TGI) of the same compound?
A: 26.8 µM

Q: What about the GI50 ([24]; read-out: pGI50 (converted)) of the same compound?
A: < 0.01 µM

Q: What about the CC50 [24, 31] of the same compound?
A: > 100 µM

Q: What about the TGI ([24]; read-out: pTGI (converted)) of the same compound?
A: 26.9 µM

Q: What about the GI50 ([25]; read-out: GI50) of the same compound?
A: < 0.01 µM

Q: What about the CC50 [25, 30] of the same compound?
A: > 100 µM

Q: What about the TGI ([25]; read-out: TGI) of the same compound?
A: 46.3 µM

Q: And the GI50 ([25]; read-out: pGI50 (converted))?
A: < 0.01 µM

Q: And the CC50 [25, 31]?
A: > 100 µM

Q: What about the TGI ([25]; read-out: pTGI (converted)) of the same compound?
A: 46.8 µM

Q: And the GI50 ([26]; read-out: GI50)?
A: < 0.01 µM

Q: And the LC50 ([26]; read-out: LC50)?
A: > 100 µM

Q: And the TGI ([26]; read-out: TGI)?
A: 56.5 µM

Q: And the GI50 ([26]; read-out: pGI50 (converted))?
A: < 0.01 µM

Q: What about the LC50 ([26]; read-out: pLC50 (converted)) of the same compound?
A: > 100 µM

Q: What about the TGI ([26]; read-out: pTGI (converted)) of the same compound?
A: 56.2 µM

Q: What about the GI50 ([27]; read-out: GI50) of the same compound?
A: < 0.01 µM

Q: What about the LC50 ([27]; read-out: LC50) of the same compound?
A: > 100 µM

Q: And the TGI ([27]; read-out: TGI)?
A: < 0.01 µM

Q: And the GI50 ([27]; read-out: pGI50 (converted))?
A: < 0.01 µM

Q: And the LC50 ([27]; read-out: pLC50 (converted))?
A: > 100 µM

Q: And the TGI ([27]; read-out: pTGI)?
A: < 0.01 µM

Q: And the GI50 ([28]; read-out: GI50)?
A: < 0.01 µM

Q: And the CC50 [28, 30]?
A: > 100 µM

Q: What about the TGI ([28]; read-out: TGI) of the same compound?
A: 17.8 µM

Q: And the GI50 ([28]; read-out: pGI50 (converted))?
A: < 0.01 µM

Q: What about the CC50 [28, 31] of the same compound?
A: > 100 µM

Q: And the TGI ([28]; read-out: pTGI (converted))?
A: 17.8 µM

Q: And the GI50 ([29]; read-out: GI50)?
A: < 0.01 µM

Q: What about the LC50 (concentration killing 50% of cells) ([29]; read-out: LC50) of the same compound?
A: > 100 µM

Q: And the TGI ([29]; read-out: TGI)?
A: 44.8 µM

Q: And the GI50 ([29]; read-out: pGI50 (converted))?
A: < 0.01 µM

Q: What about the LC50 (concentration killing 50% of cells) ([29]; read-out: pLC50 (converted)) of the same compound?
A: > 100 µM

Q: And the TGI ([29]; read-out: pTGI (converted))?
A: 44.7 µM
